Assay results from PubChem BioAssay (NCI).
Several values for one entry are separate records, joined by “and”; a condition that tells them apart may be missing. Equal values may be shown once.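 Five concentrations, 48 hours, 96-well plates. At the TGI there is no net growth.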

How the values were obtained:
Assay in all cases: growth of human tumour cells (NCI), 48 h
TK-10 renal = tested on: TK-10 renal
UO-31 renal = tested on: UO-31 renal
MALME-3M melanoma = tested on: MALME-3M melanoma
SNB-19 CNS = tested on: SNB-19 CNS
OVCAR-8 ovarian = tested on: OVCAR-8 ovarian
OVCAR-3 ovarian = tested on: OVCAR-3 ovarian
HOP-62 NSCLC = tested on: HOP-62 NSCLC
M14 melanoma = tested on: M14 melanoma
CAKI-1 renal = tested on: CAKI-1 renal
SK-OV-3 ovarian = tested on: SK-OV-3 ovarian
SF-539 CNS = tested on: SF-539 CNS
EKVX NSCLC = tested on: EKVX NSCLC
SW-620 colon = tested on: SW-620 colon
UACC-257 melanoma = tested on: UACC-257 melanoma
ACHN renal = tested on: ACHN renal
MDA-MB-231 breast = tested on: MDA-MB-231 breast
HS 578T breast = tested on: HS 578T breast

| SMILES | TGI (TK-10 renal) | TGI (UO-31 renal) [µM] | TGI (MALME-3M melanoma) [µM] | TGI (SNB-19 CNS) | TGI (OVCAR-8 ovarian) | TGI (OVCAR-3 ovarian) [µM] | TGI (HOP-62 NSCLC) | TGI (M14 melanoma) [µM] | TGI (CAKI-1 renal) [µM] | TGI (SK-OV-3 ovarian) | TGI (SF-539 CNS) | TGI (EKVX NSCLC) | TGI (SW-620 colon) | TGI (UACC-257 melanoma) | TGI (ACHN renal) | TGI (MDA-MB-231 breast) [µM] | TGI (HS 578T breast) |
| --- | --- | --- | --- | --- | --- | --- | --- | --- | --- | --- | --- | --- | --- | --- | --- | --- | --- |
| Cc1ccc(NC(=O)C(=O)Cc2cccc[n+]2[O-])cc1C | > 100 µM | > 100 | > 100 | > 100 µM | > 100 µM | > 100 | > 100 µM | > 100 | > 100 | > 100 µM | > 100 µM | > 100 µM | > 100 µM | > 100 µM | > 100 µM | – | – |
| Cc1nc(Cc2n[nH]c(C)n2)n[nH]1 | > 100 µM | > 100 | – | > 100 µM | > 100 µM | > 100 | > 100 µM | > 100 | – | > 100 µM | > 100 µM | > 100 µM | > 100 µM | > 100 µM | > 100 µM | > 100 | – |
| COc1ccc(C23OCC(Cc4cc(OC)c(OC)cc42)C3CO)cc1OC (centres undefined) | > 100 µM | > 100 | > 100 | > 100 µM | – | > 100 | > 100 µM | > 100 | > 100 | > 100 µM | > 100 µM | > 100 µM | > 100 µM | – | > 100 µM | > 100 | – |
| CCC(=C/[C@H](C)C/C=C/C(C)=C/[C@@H](C)C(=O)[C@@H](C)[C@H](O)[C@@H](C)CC)/C=C/[C@H]1CC=CC(=O)O1 | 1.91 µM and 14.3 µM | – | 2.31 | 2.11 µM and 14 µM | 2.79 µM and 11.3 µM | – | 2.05 µM and 13 µM | 0.159 | 2.88 | 3.28 µM and 18.6 µM | 0.174 µM and 1.35 µM | 12 µM and 14.3 µM | 2.09 µM and 12.1 µM | 2.22 µM and 18 µM | 1.89 µM and 10.9 µM | – | 7.02 µM and 2.38 µM |
| Cc1cc(C)n2c(nc3ccccc32)c1C#N | > 100 µM | > 100 | > 100 | > 100 µM | > 100 µM | > 100 | – | > 100 | > 100 | > 100 µM | > 100 µM | > 100 µM | > 100 µM | > 100 µM | > 100 µM | > 100 | – |
| c1cc2c(cc1[C@@H]1OC[C@@H]3[C@H]1CO[C@H]3c1ccc3c(c1)OCO3)OCO2 | 93.8 µM | > 100 | > 100 | > 100 µM | > 100 µM | > 100 | > 100 µM | > 100 | > 100 | > 100 µM | > 100 µM | 83.6 µM | > 100 µM | 80.7 µM | > 100 µM | > 100 | – |
| O=C1/C(=C/c2ccc(Cl)cc2)Oc2ccccc21 | 64.3 µM | 30.4 | – | > 100 µM | 89.5 µM | > 100 | 53.3 µM | > 100 | 12.6 | > 100 µM | 48.8 µM | 46.1 µM | > 100 µM | > 100 µM | 43.4 µM | > 100 | 74.7 µM |
| S=c1[nH]nc(CCCCCCCCc2n[nH]c(=S)o2)o1 | > 100 µM | > 100 | – | > 100 µM | > 100 µM | > 100 | > 100 µM | > 100 | > 100 | > 100 µM | > 100 µM | > 100 µM | > 100 µM | > 100 µM | > 100 µM | > 100 | – |
